Source: patent US20230092005A1, “COMPOSITIONS AND METHODS FOR TREATING CANCER AND TUMOR” (OBLATO, INC., priority 2020, published 2023)
Several values for one entry are separate records, joined by “and”; a condition that tells them apart may be missing. Equal entries are not always repeated.

Columns and labels:
[1] = system: human A549 lung cancer xenografts; test: Hematoxylin & Eosin (H&E) staining of extracted A549 xenograft tumors (necrosis grading); assay type: in vivo, BALB/c Nude mouse; settings: N=10
Source text: Histopathological test: The extracted tumors were fixed in 10% neutral buffered formalin solution (10% neutral buffered formalin). After sectioning the tumors to a certain thickness (about 3 mm), those were subjected to the general preparation procedure, embedded in paraffin, cut into 4 to 5 μm size, and tissue sections were stained with Hematoxylin and Eosin (H&E) and TUNEL. IHC (Immunohistochemistry) slides, cut into 4 to 5 μm size, were produced and sent to the sponsor (Negative Control Group (G1), Test substance 2 (G3, Animal ID Nos.: 1301, 1302, 1303, 1307, 1310), Test substance 3 (G4, Animal ID Nos.: 1401, 1402, 1404, 1408, 1409)). Determination of Hematoxylin & Eosin (H&E) staining results: Necrosis of tumors was assessed by grading (±, +, ++, +++, ++++) the extent of necrosis in the whole section of the tumor. Necrosis was evaluated by morphological changes such as collapse or disappearance of the nucleus and eosinophilic change of cytoplasm. The extent of tumor necrosis was determined by the percentage of the following necrosis area. Histopathological test (Table 7, FIGS. 7-11): The extracted fixed tumor was cut to a certain thickness (about 3 mm), then subjected to general tissue treatment, paraffin-embedded to produce blocks, and tissue sections of 4 to 5 μm in size were prepared. Then, Hematoxylin & Eosin (H&E) staining and TUNEL staining were performed.

[2] = system: human A549 lung cancer xenografts; test: TUNEL staining of extracted A549 xenograft tumors (apoptosis counting and grading); assay type: in vivo, BALB/c Nude mouse; settings: for Apoptosis grade + : number of animals / Apoptosis grade ++ (moderate): number of animals / Apoptosis grade +++ (marked): number of animals / Apoptosis grade ++++ (severe): number of animals / Apoptosis grade ± (minimal): number of animals: N=10; for Apoptosis counting No. (group mean ± S.D.): TUNEL positive cells per 1 mm^2
Source text: Histopathological test: The extracted tumors were fixed in 10% neutral buffered formalin solution (10% neutral buffered formalin). After sectioning the tumors to a certain thickness (about 3 mm), those were subjected to the general preparation procedure, embedded in paraffin, cut into 4 to 5 μm size, and tissue sections were stained with Hematoxylin and Eosin (H&E) and TUNEL. IHC (Immunohistochemistry) slides, cut into 4 to 5 μm size, were produced and sent to the sponsor (Negative Control Group (G1), Test substance 2 (G3, Animal ID Nos.: 1301, 1302, 1303, 1307, 1310), Test substance 3 (G4, Animal ID Nos.: 1401, 1402, 1404, 1408, 1409)). Determination of TUNEL staining results: After histological examination of the entire cross-section of the tumor for grading (±, +, ++, +++, ++++) of apoptosis, the nucleated brown stained cells were read as […] was counted. The apoptosis of the tumor was determined by the number of positive cells per […] (1 mm^2). The apoptosis of the tumor was determined by calculating the average number of positive cells and graded into the corresponding severity. The number of positive cells in which apoptosis occurred was determined by counting the number of positive cells per unit area (1 mm^2). Histopathological test (Table 7, FIGS. 7-11): The extracted fixed tumor was cut to a certain thickness (about 3 mm), then subjected to general tissue treatment, paraffin-embedded to produce blocks, and tissue sections of 4 to 5 μm in size were prepared. Then, Hematoxylin & Eosin (H&E) staining and TUNEL staining were performed.

CC(C)(C)/[N+]([O-])=C/c1ccc(S(=O)(=O)O)cc1S(=O)(=O)O [OKN-007, Disodium 4-[(Z)-[tert-butyl(oxido)azaniumylidene]methyl]benzene-1,3-disulfonate]
Necrosis grade + : number of animals ([1]; G2, 150 mg/kg P.O.): 3 | Necrosis grade ++ (moderate): number of animals ([1]; G2, 150 mg/kg P.O.): 2 | Necrosis grade +++ (marked): number of animals ([1]; G2, 150 mg/kg P.O.): 0 | Necrosis grade ++++ (severe): number of animals ([1]; G2, 150 mg/kg P.O.): 0 | Necrosis grade ± (minimal): number of animals ([1]; G2, 150 mg/kg P.O.): 5 | Necrosis grade + : number of animals ([1]; G3, 300 mg/kg P.O.): 2 | Necrosis grade ++ (moderate): number of animals ([1]; G3, 300 mg/kg P.O.): 1 | Necrosis grade +++ (marked): number of animals ([1]; G3, 300 mg/kg P.O.): 0 | Necrosis grade ++++ (severe): number of animals ([1]; G3, 300 mg/kg P.O.): 0 | Necrosis grade ± (minimal): number of animals ([1]; G3, 300 mg/kg P.O.): 7 | Necrosis grade + : number of animals ([1]; G4, 600 mg/kg P.O.): 2 | Necrosis grade ++ (moderate): number of animals ([1]; G4, 600 mg/kg P.O.): 2 | Necrosis grade +++ (marked): number of animals ([1]; G4, 600 mg/kg P.O.): 0 | Necrosis grade ++++ (severe): number of animals ([1]; G4, 600 mg/kg P.O.): 0 | Necrosis grade ± (minimal): number of animals ([1]; G4, 600 mg/kg P.O.): 6 | Apoptosis grade + : number of animals ([2]; G2, 150 mg/kg P.O.): 1 | Apoptosis grade ++ (moderate): number of animals ([2]; G2, 150 mg/kg P.O.): 0 | Apoptosis grade +++ (marked): number of animals ([2]; G2, 150 mg/kg P.O.): 0 | Apoptosis grade ++++ (severe): number of animals ([2]; G2, 150 mg/kg P.O.): 0 | Apoptosis grade ± (minimal): number of animals ([2]; G2, 150 mg/kg P.O.): 9 | Apoptosis counting No. (group mean ± S.D.) ([2]; G2, 150 mg/kg P.O.): 79.6±29.8 No./mm^2 and 79.6 ± 20.8 No./mm^2 | Apoptosis grade + : number of animals ([2]; G3, 300 mg/kg P.O.): 2 | Apoptosis grade ++ (moderate): number of animals ([2]; G3, 300 mg/kg P.O.): 0 | Apoptosis grade +++ (marked): number of animals ([2]; G3, 300 mg/kg P.O.): 0 | Apoptosis grade ++++ (severe): number of animals ([2]; G3, 300 mg/kg P.O.): 0 | Apoptosis grade ± (minimal): number of animals ([2]; G3, 300 mg/kg P.O.): 8 | Apoptosis counting No. (group mean ± S.D.) ([2]; G3, 300 mg/kg P.O.): 91.5±32.2 No./mm^2 | Apoptosis grade + : number of animals ([2]; G4, 600 mg/kg P.O.): 5 | Apoptosis grade ++ (moderate): number of animals ([2]; G4, 600 mg/kg P.O.): 2 | Apoptosis grade +++ (marked): number of animals ([2]; G4, 600 mg/kg P.O.): 0 | Apoptosis grade ++++ (severe): number of animals ([2]; G4, 600 mg/kg P.O.): 0 | Apoptosis grade ± (minimal): number of animals ([2]; G4, 600 mg/kg P.O.): 3 | Apoptosis counting No. (group mean ± S.D.) ([2]; G4, 600 mg/kg P.O.): 149.9±59.5 No./mm^2
